Data set [1] is described as follows: MRI relaxivity of Mn-PDA contrast agents with BAPTA, with and without calcium, in buffer. It counts as physicochemical. The note with it: 1.1 equivalents BAPTA, equimolar Ca^2+. How it is done: To examine the potential of Mn-PDA contrast agents to function as building blocks for the sensor design of FIG. 1A, MRI measurements were performed to assess the potential of BAPTA to interact with three paramagnetic chelates (FIG. 1A, inset). Addition of 1.1 equivalents of BAPTA to two of the Mn-PDA complexes, MnL1 and MnL3, produced significant effects on the T1-weighted MRI contrast induced by these compounds in buffer. These BAPTA-dependent contrast changes were reversed by addition of equimolar Ca^2+ (FIG. 1B). This was consistent with Mn-PDA moieties competing with Ca^2+ for binding to BAPTA molecules. The changes were quantified in terms of T1 relaxivity (r1) values, which were defined as the slope of the T1 relaxation rate (1/T1=R1) vs. concentration of each paramagnetic complex.
Most MRI data were acquired on a 7 T Bruker Biospec0 system using a T1-weighted 2D gradient echo sequence (echo time, TE=5 ms, repetition time, TR=100 ms; flip angle, FA=65 degrees (°)). Longitudinal relaxivity (r1) measurements were acquired using a 2D spin echo sequence (TE=11 ms, TR=125, 200, 400, 800, 1500, 3000, and 5000 ms), with in-plane resolution of 200×200 microns squared ((μm)^2) and 2 mm slice thickness. […] Stimulus-dependent R1 changes in cells were calculated as ΔR1/R1=[R1(incubated cells)−R1(naive cells)]/R1(naive cells). […]

Data set [2] is described as follows: Optical spectra / mass spectrometry of Mn-PDA complexes incubated with BAPTA over time. The note with it: mixture with BAPTA, 0 h vs 24 h; confirmed by mass spectrometry. The data set is classed as physicochemical. The source says:
In contrast, the MnL1 mixture with BAPTA developed a strong peak for uncomplexed L1 (m/z=347.37), indicating dissociation of the MnL1 complex.

As for `O=C1c2ccccc2[O][Mn-]23[O]c4ccccc4C(=O)[N]2c2ccccc2[N]13` [MnL1], the “Calcium-dependent changes in r1 in the presence of BAPTA” value in data set [1] is 105%. The “spectroscopic behavior in the presence of BAPTA over time (stability)” value in data set [2] is “sharp changes indicative of degradation”.

(Values after patent US10933146B2, “Cell-permeable imaging sensors and uses thereof” (Massachusetts Institute of Technology, priority 2017, dated 2021).)
